Assay results as given in US12365699B2, “Elastase inhibitor prodrug and use thereof” (SUZHOU ARK BIOPHARMACEUTICAL CO., LTD., priority 2020, dated 2025).

How the values were obtained:
[1] = Stability test of prodrug in simulated lung fluids (Gamble's buffer, ALF buffer) at 37° C., HPLC ratio of prodrug and hydrolyzate; format: physicochemical; conditions: for ratio of the hydrolysis: within half an hour, ratio maintained for the next 20 hours; for hydrolysis: linear hydrolysis
Experimental: (§1) Two simulated lung fluids including Gamble's buffer and ALF buffer were prepared according to literature reports (Marques M. R. C., Loebenberg R., Almukainzi M., Simulated Biological Fluids with Possible Application in Dissolution Testing, Dissolution Technologies, 2011, 18(3): 15-28) to test the prodrug stability in simulated lung fluids. In addition, according to the need for animal experimental preparations and sample analysis, three different solvents were prepared: vehicle for animal experiments (water with 5% ethanol), anhydrous ethanol and acetonitrile. They were used to test the stability of pre-dose formulations in animals and collected samples during analysis. Dissolve example 1 compound (2 mg) and example 2 compound (2 mg) in 1 mL of the above-filtered buffer or solvent, respectively. Observe whether there is undissolved particulate matter after vortex shaking, and then filter the suspension or solution to remove undissolved compounds and immediately take 100 μL as the sample at the start of the stability test. Then the ratio of prodrug and hydrolyzate (namely compound 52 in WO 2018/175173 A1, used as a control) was analyzed by HPLC. Afterwards the samples in the two simulated lung fluids were placed on an orbital shaker at 37° C. and shaken at 200 rpm, and sampling at 0.5 hours, 1 hour, 2 hours, 4 hours and 20 hours, and the ratio of prodrug and hydrolyzate were analyzed by HPLC immediately. Let the samples dissolved in the three solvents stand at room temperature, sampling at 1 hour, 3 hours, and 18 hours, and the ratio of prodrug and hydrolyzate were immediately detected.

[2] = Stability test of prodrug in different solvents (vehicle water with 5% ethanol, anhydrous ethanol, acetonitrile) at room temperature; format: physicochemical
Experimental: as §1

[3] = In vivo pharmacokinetics in mice, pulmonary drug concentration after intratracheal administration; design: species or system male C57BL/6 mice; conditions: intratracheal 2 mg/kg
Source text: Compare the pharmacokinetics of the final prodrug compound of Example 1 and the control example (compound 52 in WO 2018/175173 A1) in mice:
7-9-week-old male C57BL/6 mice were randomly divided into two groups after the adaptation phase: the elastase inhibitor control group and the Example 1 group.

[4] = male, C57BL/6, mouse, lung, other: intratracheal, parent compound dosed, read-out: drug concentration in the lungs

Row | ratio of the hydrolysis ([1]; acidic ALF buffer (pH 4.5)) | ratio of the hydrolysis ([1]; neutral Gamble's buffer (pH 7.4)) | hydrolysis in acetonitrile ([2]; up to 18 hours) | hydrolysis in anhydrous ethanol ([2]; anhydrous ethanol, up to 18 hours) | hydrolyzed in the resolvent ([2]; resolvent, after 18 hours) | hydrolyzed in the resolvent ([2]; resolvent, in 3 hours) | concentration at 6 h [3, 4] | concentration at 12 h ([3]; male, C57BL/6, mouse, lung, other: intratracheal, parent compound dosed, at 12 hours, read-out: drug concentration in the lungs) | hydrolysis ([1]; acidic ALF buffer (pH 4.5), in about 15 hours) | hydrolysis ([1]; neutral Gamble's buffer (pH 7.4), at 2.5 hours) | hydrolysis rate ([2]; anhydrous ethanol) | hydrolysis rate ([2]; resolvent) | drug concentration in the lungs ([3]; parent compound dosed, at 12 hours) | Compound | conversion of prodrug in mice [3] | effect on lung concentration and residence time of the control example compared to direct administration of the control example [3]
1 | 40% | 25% | hardly hydrolyzed | hardly hydrolyzed | about 20% | about 18% | 1070 ng/g | 120 ng/g | – | – | – | – | – | CC(C)[C@H](NC(=O)[C@@H]1CCCN1C(=O)[C@@H](NC(=O)c1ccc(C(=O)NCC(=O)O)cc1)C(C)C)B1O[C@@H]2C[C@@H]3C[C@@H](C3(C)C)[C@]2(C)O1 [Example 1, N-(4-(((S)-3-methyl-1-((S)-2-(((R)-2-methyl-1-((3aS,4S,6S,7aR)-3a,5,5-trimethylhexahydro-4,6-methanobenzo[d][1,3,2]dioxaborol-2-yl)propyl)carbamoyl)pyrrolidin-1-yl)-1-oxobutan-2-yl)carbamoyl)benzoyl)glycine] | quickly converted into the control example | greatly increases the concentration and residence time of the control example in the lungs
2 | – | – | did not hydrolyze | – | – | – | – | – | about 50% | about 50% | about 0.5 % per hour | about 1 % hydrolysis per hour | – | CC(C)[C@H](NC(=O)c1ccc(C(=O)NCC(=O)O)cc1)C(=O)N1CCC[C@H]1C(=O)N[C@@H](C(C)C)[B-]12OC(=O)C[N+]1(C)CC(=O)O2 (stereo partly drawn) [Example 2, N-(4-(((S)-3-methyl-1-((S)-2-(((R)-2-methyl-1-(6-methyl-4,8-dioxo-1,3,6,2-dioxazaborocan-2-yl)propyl)carbamoyl)pyrrolidin-1-yl)-1-oxobutan-2-yl)carbamoyl)benzoyl)glycine] | – | –
3 | – | – | – | – | – | – | 153 ng/g | – | – | – | – | – | completely cleared | CC(C)[C@H](NC(=O)[C@@H]1CCCN1C(=O)[C@@H](NC(=O)c1ccc(C(=O)NCC(=O)O)cc1)C(C)C)B(O)O [control example, N-(4-(((S)-1-((S)-2-(((R)-1-borono-2-methylpropyl)carbamoyl)pyrrolidin-1-yl)-3-methyl-1-oxobutan-2-yl)carbamoyl)benzoyl)glycine, reference compound] | – | –
